Measured values reported in article PMC11237654, “Optimization of quenched fluorescent peptide substrates of SARS-CoV-2 3CL^pro main protease (Mpro) from proteomic identification of P6—P6' active site specificity” (Journal of Virology, 2024).
“And” between values parts separate entries of the source, which are not always exact repeats. Equal values may be shown once.

Each substance was assayed against T1, SARS-CoV-2 3CL^pro (Severe acute respiratory syndrome coronavirus 2, UniProt P0DTD1, Q3569A). Settings: not given.

Substance | ^app(kcat/KM) | cleavage at second (test) site with P1' X
AAVALM↓SAHHYAYR [P1-Met] | 37 M⁻¹ s⁻¹ | 
AAVALX↓SAHHYAYR [P1-His] | 222 M⁻¹ s⁻¹ | 
AAVALQ↓XAHHYAYR [S] | 1,528 M^−1s^−1 | 
VALQ↓GAHRVALQ↓XAHYR [Leu] |  | minimal cleavage

Same assay, conditions: pH 6.9

Substance | ^app(kcat/KM)
AAVALQ↓XAHHYAYR [listing 1 of 7 here] | 1,522.0 ± 7.6 M^−1s^−1
AAVALQ↓XAHHYAYR [N] | 71.8 ± 3.2 M⁻¹ s⁻¹
AAVALQ↓XAHHYAYR [listing 2 of 7 here] | No cleavage
AAVALQ↓XAHHYAYR [E] | No cleavage
AAVALQ↓XAHHYAYR [listing 3 of 7 here] | 45.0 ± 0.6 M⁻¹ s⁻¹
AAVALQ↓XAHHYAYR [K] | No cleavage
AAVALQ↓XAHHYAYR [listing 4 of 7 here] | No cleavage
AAVALQ↓XAHHYAYR [P] | No cleavage
AAVALQ↓XAHHYAYR [W] | No cleavage
AAVALQ↓XAHHYAYR [listing 5 of 7 here] | No cleavage
AAVALQ↓XAHHYAYR [M] | 65.8 ± 1.4 M⁻¹ s⁻¹
AAVALQ↓XAHHYAYR [T] | No cleavage
AAVALQ↓XAHHYAYR [listing 6 of 7 here] | No cleavage
AAVALQ↓XAHHYAYR [S] | 1,519.1 ± 6.2 M^−1s^−1
AAVALQ↓XAHHYAYR [I] | No cleavage
AAVALQ↓XAHHYAYR [D] | No cleavage
AAVALQ↓XAHHYAYR [G] | 1,079.1 ± 12.6 M^−1s^−1
AAVALQ↓XAHHYAYR [listing 7 of 7 here] | No cleavage
AAVALQ↓XAHHYAYR [C] | No cleavage

Each substance was assayed against T1, SARS-CoV-2 3CL^pro. Settings: pH 6.9.

Substance | ^app(kcat/KM) [M⁻¹ s⁻¹]
AAVALM↓SAHHYAYR [P1-Met] | 37

Biological target: T1, SARS-CoV-2 3CL^pro
Settings: not given
Remark: another data set of the same source

Substance | kcat/KM
Mca-RVALQ↓XAHYK(Dnp)RR [QFS1-G1'] | 4,515.7 M^−1·s^−1 and 4,515.7 ± 248
Mca-RVALQ↓XAHYK(Dnp)RR [QFS1-S1'] | 13,696.8 M^−1·s^−1 and 13,696.8 ± 269
Mca-RVALQ↓XAHYK(Dnp)RR [QFS1-A1'] | 13,131.0 M^−1·s^−1 and 13,131.0 ± 207
